Experimental findings from patent US20160213647A1, “COMPOSITIONS AND METHODS FOR INHIBITING VIRAL INFECTION” (priority 2015, published 2016) are described below.

Read-outs that look alike come from different tables or passages of the source.

One data set deals with HIV-1 isolate MDR807. Description: microbe, parasite or virus in culture. As to conditions: Human immunodeficiency virus 1, PBMC.
The test system of the next data set is HIV-2 CDC 310319. The data set can be described thus: microbe, parasite or virus in culture. As to conditions: Human immunodeficiency virus 2, PBMC.
In the next data set the test system is HIV-1 91US001. Description: microbe, parasite or virus in culture. Particulars: Human immunodeficiency virus 1, PBMC.
A further data set has as its system HIV-2 CBL20 H9. Description: microbe, parasite or virus in culture. As to conditions: Human immunodeficiency virus 2, PBMC.
A further data set relates to HIV-1 isolate 4736_4. Description: microbe, parasite or virus in culture. Particulars: Human immunodeficiency virus 1, PBMC.
In another data set the test system is HIV-1 isolate A17. Description: microbe, parasite or virus in culture. Particulars: Human immunodeficiency virus 1, PBMC.
Data set [1] is described as follows: in vitro. Particulars: human.
The subject of data set [2] is HIV-1 isolate NL4-3. Description: microbe, parasite or virus in culture. Particulars: Human immunodeficiency virus 1, NL43, PBMC.
Another data set relates to HIV-1 isolate 1022-48. Description: microbe, parasite or virus in culture. As to conditions: Human immunodeficiency virus 1, PBMC.
For data set [3], the system named is Peripheral Blood Mononuclear Cells (PBMCs). Particulars: human.
A short description of data set [4]: in vitro. Particulars: human. This is another data set of the same source.
The next data set relates to HIV-1 92HT599. Description: microbe, parasite or virus in culture. Particulars: Human immunodeficiency virus 1, PBMC.
In another data set the test system is HIV-1 MDR 769. The data set can be described thus: microbe, parasite or virus in culture. Particulars: Human immunodeficiency virus 1, PBMC.
For the next data set, the system named is HIV-1 isolate MDR769. The data set can be described thus: microbe, parasite or virus in culture. Particulars: Human immunodeficiency virus 1, PBMC.
For a further data set, the system named is A/Ca/07/09 (H1N1). Description: microbe, parasite or virus in culture. It is filed as cell-based. As to conditions: Influenza A virus, H1N1, HEK-293T.
Data set [5] can be described thus: in vitro. As to conditions: human. The source holds these as a separate data set.
The test system of the next data set is A/Udorn/72 (H3N2). The data set can be described thus: microbe, parasite or virus in culture. The format is cell-based. As to conditions: Influenza A virus, H3N2, HEK-293T.
A further data set relates to CHIKV 899 wild-type. The data set can be described thus: Chikungunya virus-induced cell death (CPE, MTS/PMS) assay in Vero A cells. Particulars: Chikungunya virus, Vero, read-out: EC50 WT.
The subject of data set [6] is HIV-1 isolate NL4-3.

`Cc1cn([C@H]2C[C@H](N=[N+]=[N-])[C@@H](CO)O2)c(=O)[nH]c1=O` [AZT, azidothymidine]: the IC90 in the data set on HIV-1 isolate MDR807 was 162 nM; with HIV-1 isolate MDR807 (read-out: IC50), above 1000 nM; in the data set with HIV-1 isolate 4736_4 it was 2.57 nM; in the data set with HIV-1 isolate 4736_4 (read-out: IC50), 20.6 nM; in the data set on HIV-1 isolate A17, 11.6 nM; with HIV-1 isolate A17 (read-out: IC50), 27.4 nM. The IC90 in the data set on HIV-1 isolate NL4-3 [2] was 9.96 nM; in the data set on HIV-1 isolate NL4-3 [2] (read-out: IC50) it was 39.6 nM; in the data set with HIV-1 isolate 1022-48, above 1000 nM. For the same compound, the IC50 is 5.73 nM with HIV-2 CDC 310319; 17.4 nM in the data set with HIV-1 91US001; below 0.1 nM in the data set on HIV-2 CBL20 H9; above 1000 nM in the data set with HIV-1 isolate 1022-48; 11.9 nM in the data set with HIV-1 92HT599. The CC50 (in the data set “in vitro [1]”; in data set [3]; in the data set “in vitro [4]”) was above 1000 nM each time.
In the data set with HIV-1 isolate A17, `CC(C)Nc1cccnc1N1CCN(C(=O)c2cc3cc(NS(C)(=O)=O)ccc3[nH]2)CC1` [Delavirdine] displayed a half-inhibitory concentration (IC50) above 2000 nM. For the same compound, the IC90 is above 2000 nM with HIV-1 isolate A17, 30.6 nM in the data set with HIV-1 isolate NL4-3 [2] and 57.6 nM in the data set with HIV-1 isolate NL4-3 [2] (read-out: IC50). For the same compound, in the data set “in vitro [1]”, the CC50 was above 2000 nM.
Compound `O=C1Nc2ccc(Cl)cc2[C@@](C#CC2CC2)(C(F)(F)F)O1` [Efavirenz] had an IC50 in the data set with HIV-1 MDR 769 of 0.66 nM. Besides, the CC50 (in data set [3]; in “in vitro [4]”) was above 1000 nM each time.
As to `COc1cc2c(cc1Cc1cccc(Cl)c1F)c(=O)c(C(=O)O)cn2[C@H](CO)C(C)C` [Elvitegravir], the IC90 in the data set on HIV-1 isolate 4736_4 is 81.9 nM; in the data set with HIV-1 isolate 4736_4 (read-out: IC50), 251 nM; with HIV-1 isolate NL4-3 [2] it was 0.52 nM; in the data set with HIV-1 isolate NL4-3 [2] (read-out: IC50), 1.25 nM. The same compound registered a CC50 in the data set “in vitro [1]” above 1000 nM.
With `Cc1cccc(C)c1OCC(=O)N[C@@H](Cc1ccccc1)[C@@H](O)C[C@H](Cc1ccccc1)NC(=O)[C@H](C(C)C)N1CCCNC1=O` [Lopinavir], the half-inhibitory concentration (IC50) in the data set on HIV-1 MDR 769 is 827 nM. In addition, the CC50 in data set [3] (7 days) was above 1000 nM. This compound also had a CC50 at 7 days in the data set “in vitro [4]” above 1000 nM.
In the data set with HIV-1 isolate A17, `Cc1ccnc2c1NC(=O)c1cccnc1N2C1CC1` [Nevirapine] had an IC50 above 10000 nM. Besides, the IC90 with HIV-1 isolate A17 is above 10000 nM; in the data set on HIV-1 isolate NL4-3 [2], 75.3 nM; in the data set with HIV-1 isolate NL4-3 [2] (read-out: IC50) it was 227 nM; with HIV-1 isolate 1022-48, 70.4 nM; in the data set with HIV-1 isolate 1022-48 (read-out: IC50), 242 nM. The CC50 in “in vitro [1]” was above 10000 nM.
As to `Cc1nnc(C(=O)NC(C)(C)c2nc(C(=O)NCc3ccc(F)cc3)c(O)c(=O)n2C)o1` [Raltegravir, raltegravir], the IC90 is 0.46 nM in the data set with HIV-1 isolate MDR807; 2.16 nM in the data set on HIV-1 isolate MDR807 (read-out: IC50); 74.5 nM with HIV-1 isolate 4736_4; above 100 nM in the data set with HIV-1 isolate 4736_4 (read-out: IC50); 1.3 nM in the data set on HIV-1 isolate NL4-3 [2]; 5.18 nM with HIV-1 isolate NL4-3 [2] (read-out: IC50). For the same compound, the IC90 in the data set on HIV-1 isolate MDR769 was found to be 3.64 nM; in the data set with HIV-1 isolate MDR769 (read-out: IC50), 8.95 nM. Besides, the CC50 in “in vitro [1]” is above 100 nM.
As to `NC(=O)c1ncn([C@@H]2O[C@H](CO)[C@@H](O)[C@H]2O)n1` [Ribavirin, reference compound], the EC50 is 12800 nM with A/Ca/07/09 (H1N1) and 5240 nM with A/Udorn/72 (H3N2). The CC50 in the data set “in vitro [5]” is above 100000 nM.
For `CC(C)c1nc(CN(C)C(=O)N[C@H](C(=O)N[C@@H](Cc2ccccc2)C[C@H](O)[C@H](Cc2ccccc2)NC(=O)OCc2cncs2)C(C)C)cs1` [Ritonavir, ritonavir], the IC90 was 1280 nM with HIV-1 isolate MDR807; 5940 nM in the data set with HIV-1 isolate MDR807 (read-out: IC50); 45.5 nM in the data set with HIV-1 isolate NL4-3 [2]; 92.3 nM in the data set on HIV-1 isolate NL4-3 [2] (read-out: IC50); above 10000 nM with HIV-1 isolate 1022-48. Besides, the IC50 in the data set with HIV-1 isolate 1022-48 is above 10000 nM.
For `NC(=O)c1nc(F)c[nH]c1=O` [T-705, favipiravir, reference compound], the EC50 in the data set with CHIKV 899 wild-type amounted to 7400 nM.
Consider Enfuvirtide, for which, in the data set with HIV-1 isolate NL4-3 [6], the 50% inhibitory concentration (IC50) turned out to be 412 nM and the IC90 is 133 nM.
enfuvirtide: in the data set on human PBMCs, the CC50 was above 2000 nM.

By IC50 is commonly meant the concentration that inhibits the measured activity by half. A low value points to greater potency in that assay. By EC50 is commonly meant the concentration that produces a half-maximal response.
